Laboratory results published in patent US10294202B2, “Pyrrolidinones as herbicides” (FMC Corporation, priority 2013, dated 2019).

Experiments:
barnyardgrass [1] = assay: Test A pre-/postemergence herbicide test; format: in vivo, Echinochloa crus-galli
In short: (§1)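 Seeds sown in loam soil/sand blend received a preemergence directed soil spray of test chemical in non-phytotoxic solvent with surfactant; postemergence plants (2–10 cm, one- to two-leaf stage) were sprayed with the same formulation. After about 10 days in greenhouse, injury was rated visually versus untreated controls, 0 (no effect) to 100 (complete control).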

crabgrass, large = assay: Test A pre-/postemergence herbicide test; format: in vivo, Digitaria sanguinalis
In short: as §1

giant foxtail = assay: Test A pre-/postemergence herbicide test; format: in vivo, Setaria faberii
In short: as §1

morningglory = assay: Test A pre-/postemergence herbicide test; format: in vivo, Ipomoea spp.
In short: as §1

pigweed = assay: Test A pre-/postemergence herbicide test; format: in vivo, Amaranthus retroflexus
In short: as §1

velvetleaf = assay: Test A pre-/postemergence herbicide test; format: in vivo, Abutilon theophrasti
In short: as §1

wheat = assay: Test A pre-/postemergence herbicide test; format: in vivo, Triticum aestivum
In short: as §1

corn = assay: Test A pre-/postemergence herbicide test; format: in vivo, Zea mays
In short: as §1

rice = assay: Test B flooded paddy test; format: in vivo, Oryza sativa; conditions: Flood, scale of 0 to 100 where 0 is no effect and 100 is complete control
In short: (§2)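 Paddy-water application at a 3 cm flood, young plants having two leaves. Water level maintained; greenhouse, 13–15 days; visual 0–100 control rating.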

sedge, umbrella = assay: Test B flooded paddy test; format: in vivo, Cyperus difformis; conditions: Flood, scale of 0 to 100 where 0 is no effect and 100 is complete control
In short: as §2

ducksalad = assay: Test B flooded paddy test; format: in vivo, Heteranthera limosa; conditions: Flood, scale of 0 to 100 where 0 is no effect and 100 is complete control
In short: as §2

barnyardgrass [2] = assay: Test B flooded paddy test; format: in vivo, Echinochloa crus-galli; conditions: Flood, scale of 0 to 100 where 0 is no effect and 100 is complete control
In short: as §2

[3] = 125 g ai/ha, visual rating, 0 to 100 scale, 0 no effect, 100 complete control, approximately 10 days, preemergence
[4] = Postemergence, 125 g ai/ha, 0 to 100 scale, 0 no effect, 100 complete control
[5] = Postemergence, 500 g ai/ha, 0 to 100 scale (0 no effect, 100 complete control)
[6] = preemergence, 500 g ai/ha, 0 to 100 scale
[7] = Postemergence, 1000 g ai/ha, 0 to 100 scale (0 no effect, 100 complete control)
[8] = preemergence, 1000 g ai/ha, 0 to 100 scale
[9] = Postemergence, 125 g ai/ha, 0 to 100 scale, 0 is no effect, 100 is complete control
[10] = preemergence, 500 g ai/ha, 0 to 100 scale, 0 is no effect and 100 is complete control

Q: With `O=C1NCC(c2ccc3ccccc3c2)C1C(=O)Nc1ccccc1C(F)(F)F` (racemic) [Compound 117] as the molecule, how does the “Plant response rating, Barnyardgrass” value (barnyardgrass [1]; [3]) read?
A: 0

Q: And the “Plant response rating, Barnyardgrass” value (barnyardgrass [1]; [4])?
A: 0

Q: And the “Plant response rating, Barnyardgrass” value (barnyardgrass [1]; [5])?
A: 30

Q: And the “Plant response rating, Barnyardgrass” value (barnyardgrass [1]; preemergence, 500 g ai/ha, 0 to 100 scale (0 no effect, 100 complete control))?
A: 20

Q: What about the “Plant response rating, Crabgrass, Large” value (crabgrass, large; [3]) of the same molecule?
A: 60

Q: And the “Plant response rating, Crabgrass, Large” value (crabgrass, large; [4])?
A: 30

Q: And the “Crabgrass, Large plant response rating (0 to 100 scale, 0 is no effect, 100 is complete control)” value (crabgrass, large; Postemergence, 500 g ai/ha)?
A: 60

Q: What about the “Plant response rating, Crabgrass, Large” value (crabgrass, large; [6]) of the same molecule?
A: 80

Q: And the “Plant response rating, Foxtail, Giant” value (giant foxtail; [3])?
A: 20

Q: And the “Plant response rating, Foxtail, Giant” value (giant foxtail; [4])?
A: 20

Q: And the “Foxtail, Giant plant response rating (0 to 100 scale, 0 is no effect, 100 is complete control)” value (giant foxtail; Postemergence, 500 g ai/ha)?
A: 50

Q: And the “Plant response rating, Foxtail, Giant” value (giant foxtail; [6])?
A: 70

Q: What about the “Plant response rating, Morningglory” value (morningglory; [3]) of the same molecule?
A: 0

Q: And the “Plant response rating, Morningglory” value (morningglory; [4])?
A: 0

Q: And the “Morningglory plant response rating (0 to 100 scale, 0 is no effect, 100 is complete control)” value (morningglory; Postemergence, 500 g ai/ha)?
A: 0

Q: And the “Plant response rating, Morningglory” value (morningglory; [6])?
A: 0

Q: And the “Plant response rating, Pigweed” value (pigweed; [3])?
A: 0

Q: What about the “Plant response rating, Pigweed” value (pigweed; [4]) of the same molecule?
A: 0

Q: And the “Pigweed plant response rating (0 to 100 scale, 0 is no effect, 100 is complete control)” value (pigweed; Postemergence, 500 g ai/ha)?
A: 0

Q: What about the “Plant response rating, Pigweed” value (pigweed; [6]) of the same molecule?
A: 0

Q: What about the “Plant response rating, Velvetleaf” value (velvetleaf; [3]) of the same molecule?
A: 0

Q: What about the “Plant response rating, Velvetleaf” value (velvetleaf; [4]) of the same molecule?
A: 0

Q: And the “Velvetleaf plant response rating (0 to 100 scale, 0 is no effect, 100 is complete control)” value (velvetleaf; Postemergence, 500 g ai/ha)?
A: 0

Q: What about the “Plant response rating, Velvetleaf” value (velvetleaf; [6]) of the same molecule?
A: 0

Q: What about the “Plant response rating, Wheat” value (wheat; [3]) of the same molecule?
A: 0

Q: What about the “Plant response rating, Wheat” value (wheat; [4]) of the same molecule?
A: 0

Q: What about the “Wheat plant response rating (0 to 100 scale, 0 is no effect, 100 is complete control)” value (wheat; Postemergence, 500 g ai/ha) of the same molecule?
A: 0

Q: What about the “Plant response rating, Wheat” value (wheat; [6]) of the same molecule?
A: 0

Q: What about the “Plant response rating, Corn” value (corn; [3]) of the same molecule?
A: 0

Q: And the “Plant response rating, Corn” value (corn; [4])?
A: 0

Q: What about the “Plant response rating, Corn” value (corn; [5]) of the same molecule?
A: 20

Q: What about the “Plant response rating, Corn” value (corn; [6]) of the same molecule?
A: 0

Q: And the “Plant response rating, Rice” value (rice; 1000 g ai/ha)?
A: 0

Q: What about the “Plant response rating, Sedge, Umbrella” value (sedge, umbrella; 1000 g ai/ha) of the same molecule?
A: 0

Q: And the “Plant response rating, Ducksalad” value (ducksalad; 1000 g ai/ha)?
A: 90

Q: What about the “Plant response rating, Barnyardgrass” value (barnyardgrass [2]; 1000 g ai/ha) of the same molecule?
A: 40

Q: What does the source list for `O=C1NCC(c2ccc(F)c(F)c2)C1C(=O)Nc1ccc(F)cc1` (racemic) [Compound 193]?
A: Plant response rating, Barnyardgrass (barnyardgrass [1]; [7]): 90; Plant response rating, Barnyardgrass (barnyardgrass [1]; preemergence, 1000 g ai/ha, 0 to 100 scale (0 no effect, 100 complete control)): 80; Plant response rating, Crabgrass, Large (crabgrass, large; [7]): 90; Plant response rating, Crabgrass, Large (crabgrass, large; [8]): 100; Plant response rating, Foxtail, Giant (giant foxtail; [7]): 80; Plant response rating, Foxtail, Giant (giant foxtail; [8]): 90; Plant response rating, Morningglory (morningglory; [7]): 0; Plant response rating, Morningglory (morningglory; [8]): 0; Plant response rating, Pigweed (pigweed; [7]): 0; Plant response rating, Pigweed (pigweed; [8]): 0; Plant response rating, Velvetleaf (velvetleaf; [7]): 0; Plant response rating, Velvetleaf (velvetleaf; [8]): 0; Plant response rating, Wheat (wheat; [7]): 0; Plant response rating, Wheat (wheat; [8]): 0; Plant response rating, Corn (corn; [7]): 0; Plant response rating, Corn (corn; [8]): 0; Plant response rating, Rice (rice; 1000 g ai/ha): 20; Plant response rating, Sedge, Umbrella (sedge, umbrella; 1000 g ai/ha): 20; Plant response rating, Ducksalad (ducksalad; 1000 g ai/ha): 60; Plant response rating, Barnyardgrass (barnyardgrass [2]; 1000 g ai/ha): 0

Q: Which results are given for `COc1cc(C2CNC(=O)C2C(=O)Nc2ccccc2F)ccc1F` (racemic) [Compound 194]?
A: Plant response rating, Barnyardgrass (barnyardgrass [1]; [3]): 0; Plant response rating, Barnyardgrass (barnyardgrass [1]; [9]): 50; Barnyardgrass plant response rating (0 to 100 scale, 0 is no effect, 100 is complete control) (barnyardgrass [1]; Postemergence, 500 g ai/ha): 80; Plant response rating, Barnyardgrass (barnyardgrass [1]; [10]): 80; Plant response rating, Crabgrass, Large (crabgrass, large; [3]): 90; Plant response rating, Crabgrass, Large (crabgrass, large; [9]): 60; Crabgrass, Large plant response rating (0 to 100 scale, 0 is no effect, 100 is complete control) (crabgrass, large; Postemergence, 500 g ai/ha): 80; Plant response rating, Crabgrass, Large (crabgrass, large; [10]): 100; Plant response rating, Foxtail, Giant (giant foxtail; [3]): 50; Plant response rating, Foxtail, Giant (giant foxtail; [9]): 10; Foxtail, Giant plant response rating (0 to 100 scale, 0 is no effect, 100 is complete control) (giant foxtail; Postemergence, 500 g ai/ha): 50; Plant response rating, Foxtail, Giant (giant foxtail; [10]): 90; Plant response rating, Morningglory (morningglory; [3]): 0; Plant response rating, Morningglory (morningglory; [9]): 0; Morningglory plant response rating (0 to 100 scale, 0 is no effect, 100 is complete control) (morningglory; Postemergence, 500 g ai/ha): 0; Plant response rating, Morningglory (morningglory; [10]): 0; Plant response rating, Pigweed (pigweed; [3]): 0; Plant response rating, Pigweed (pigweed; [9]): 0; Pigweed plant response rating (0 to 100 scale, 0 is no effect, 100 is complete control) (pigweed; Postemergence, 500 g ai/ha): 0; Plant response rating, Pigweed (pigweed; [10]): 0; Plant response rating, Velvetleaf (velvetleaf; [3]): 0; Plant response rating, Velvetleaf (velvetleaf; [9]): 0; Velvetleaf plant response rating (0 to 100 scale, 0 is no effect, 100 is complete control) (velvetleaf; Postemergence, 500 g ai/ha): 0; Plant response rating, Velvetleaf (velvetleaf; [10]): 0; Plant response rating, Wheat (wheat; [3]): 0; Plant response rating, Wheat (wheat; [9]): 0; Wheat plant response rating (0 to 100 scale, 0 is no effect, 100 is complete control) (wheat; Postemergence, 500 g ai/ha): 0; Plant response rating, Wheat (wheat; [10]): 0; Plant response rating, Corn (corn; [3]): 0; Plant response rating, Corn (corn; [9]): 0; Corn plant response rating (0 to 100 scale, 0 is no effect, 100 is complete control) (corn; Postemergence, 500 g ai/ha): 0; Plant response rating, Corn (corn; [10]): 0; Plant response rating, Rice (rice; 250 g ai/ha): 0; Plant response rating, Rice (rice; 1000 g ai/ha): 20; Plant response rating, Sedge, Umbrella (sedge, umbrella; 250 g ai/ha): 0; Plant response rating, Sedge, Umbrella (sedge, umbrella; 1000 g ai/ha): 0; Plant response rating, Ducksalad (ducksalad; 250 g ai/ha): 45; Plant response rating, Ducksalad (ducksalad; 1000 g ai/ha): 80; Plant response rating, Barnyardgrass (barnyardgrass [2]; 250 g ai/ha): 0; Plant response rating, Barnyardgrass (barnyardgrass [2]; 1000 g ai/ha): 65
